Tests used:
[1] = Biodistribution in trachea of BALB/cAnNCrlCrlj mouse at 0.5 umol/kg administered as [14C]labeled compound intranasally as single dose measured 0.25 hrs post dose by liquid scintillation counting; format: ADME, organism-based; settings: in vivo, inhaled_or_intranasal
Lung [2] = assay: Biodistribution in lung of BALB/cAnNCrlCrlj mouse at 0.5 umol/kg administered as [14C]labeled compound intranasally as single dose measured 0.25 hrs post dose by liquid scintillation counting; format: ADME, organism-based; settings: in vivo, inhaled_or_intranasal
Lung [3] = assay: Biodistribution in lung of BALB/cAnNCrlCrlj mouse at 0.5 umol/kg administered as [14C]labeled compound intranasally as single dose measured 24 hrs post dose by liquid scintillation counting; format: ADME, organism-based; settings: in vivo, inhaled_or_intranasal
[4] = Biodistribution in respiratory tract of BALB/cAnNCrlCrlj mouse at 0.5 umol/kg administered as [14C]labeled compound intranasally as single dose measured 6 hrs post dose by whole body autoradiography; format: ADME, organism-based; settings: in vivo, inhaled_or_intranasal
[5] = Biodistribution in respiratory tract of BALB/cAnNCrlCrlj mouse at 0.5 umol/kg administered as [14C]labeled compound intranasally as single dose measured 72 hrs post dose by whole body autoradiography; format: ADME, organism-based; settings: in vivo, inhaled_or_intranasal
[6] = Biodistribution in trachea of BALB/cAnNCrlCrlj mouse at 0.5 umol/kg administered as [14C]labeled compound intranasally as single dose measured 24 hrs post dose by liquid scintillation counting; format: ADME, organism-based; settings: in vivo, inhaled_or_intranasal
[7] = Prodrug conversion in BALB/cAnNCrlCrlj mouse lung S9 fraction assessed as compound conversion to R-125489 at 10 uM relative to untreated control; format: ADME; settings: s9, 10 µM
[8] = Prodrug conversion in BALB/cAnNCrlCrlj mouse lung S9 fraction assessed as compound conversion to R-125489 at 10 uM in presence of esterase inhibitor BNPP administered 10 mins before compound addition relative to untreated control; format: ADME; settings: s9, 10 min
Lung [9] = assay: Half life in BALB/cAnNCrlCrlj mouse lung at 0.5 umol/kg administered as [14C]labeled compound intranasally as single dose; format: ADME, organism-based; settings: in vivo, inhaled_or_intranasal
[10] = Prodrug conversion in BALB/cAnNCrlCrlj mouse lung S9 fraction assessed as compound conversion to R-125489 at 10 uM in presence of esterase inhibitor EDTA administered 10 mins before compound addition relative to untreated control; format: ADME; settings: s9, 10 min
[11] = Prodrug conversion in BALB/cAnNCrlCrlj mouse trachea assessed as compound conversion to R-125489 at 10 uM in presence of esterase inhibitor DFP administered 10 mins before compound addition relative to untreated control; format: ADME, tissue-based
[12] = Prodrug conversion in BALB/cAnNCrlCrlj mouse lung S9 fraction assessed as compound conversion to R-125489 at 10 uM in presence of esterase inhibitor eserine administered 10 mins before compound addition relative to untreated control; format: ADME; settings: s9, 10 min
[13] = Prodrug conversion in BALB/cAnNCrlCrlj mouse lung S9 fraction assessed as compound conversion to R-125489 at 10 uM in presence of esterase inhibitor DFP administered 10 mins before compound addition relative to untreated control; format: ADME; settings: s9, 10 min
[14] = Prodrug conversion in BALB/cAnNCrlCrlj mouse lung S9 fraction assessed as compound conversion to R-125489 at 10 uM in presence of esterase inhibitor DTNB administered 10 mins before compound addition relative to untreated control; format: ADME; settings: s9, 10 min
[15] = Prodrug conversion in BALB/cAnNCrlCrlj mouse lung S9 fraction assessed as compound conversion to R-125489 at 10 uM in presence of esterase inhibitor PCMB administered 10 mins before compound addition relative to untreated control; format: ADME; settings: s9, 10 min
[16] = Prodrug conversion in BALB/cAnNCrlCrlj mouse trachea assessed as compound conversion to R-125489 at 10 uM relative to untreated control; format: ADME, tissue-based
Influenza A virus = assay: Antiviral activity against Influenza A virus (A/Puerto Rico/8/1934(H1N1)); format: functional, organism-based
Lung [17] = assay: Tmax in BALB/cAnNCrlCrlj mouse lung at 0.5 umol/kg administered as [14C]labeled compound intranasally as single dose; format: ADME, organism-based; settings: in vivo, inhaled_or_intranasal
Lung [18] = assay: Cmax in BALB/cAnNCrlCrlj mouse lung assessed as compound concentration per gram of tissue at 0.5 umol/kg administered as [14C]labeled compound intranasally as single dose; format: ADME, organism-based; parameters: dose 0.5 umol/kg, route nasal; settings: in vivo, inhaled_or_intranasal
Lung [19] = assay: Drug level in BALB/cAnNCrlCrlj mouse lung at 0.5 umol/kg administered as [14C]labeled compound intranasally as single dose measured 120 hrs post dose; format: ADME, tissue-based; settings: in vivo, inhaled_or_intranasal

Work on `CO[C@@H]([C@@H]1OC(C(=O)O)=C[C@H](N[14C](=N)N)[C@H]1NC(C)=O)[C@H](O)CO` yielded a Drug uptake [1] of 4 nmolequiv/g and a Drug uptake (Lung [2]) of 30 nmolequiv/g.
With `CCCCCCCC(=O)OC[C@@H](O)[C@@H](OC)[C@@H]1OC(C(=O)O)=C[C@H](N[14C](=N)N)[C@H]1NC(C)=O` the Drug uptake (Lung [3]) was 5.57 nmolequiv/g, the Drug uptake [4] was “Active” and the Drug uptake [1] was 4 nmolequiv/g. The Drug uptake [5] was “Active”, the Drug uptake (Lung [2]) was 30 nmolequiv/g and the Drug uptake [6] was 0.99 nmolequiv/g.
Work on `CCCCCCCC(=O)OC[C@@H](O)[C@@H](OC)[C@@H]1OC(C(=O)O)=C[C@H](NC(=N)N)[C@H]1NC(C)=O` [LANINAMIVIR OCTANOATE] yielded an Activity [7] of 100%, an Activity [8] of 21% and a t1/2 (Lung [9]) of 0.833 h. The Activity [10] was 130.7%, the Activity [11] was 44.1% and the Activity [12] was 31.9%. For the same compound, the Activity [13] was 13.6%, the Activity [14] was 42% and the Activity [15] was 106.5%. For the same compound, the Activity [16] was 100%.
Compound `CO[C@@H]([C@@H]1OC(C(=O)O)=C[C@H](NC(=N)N)[C@H]1NC(C)=O)[C@H](O)CO` [LANINAMIVIR] has an IC50 (Influenza A virus) of 5.97 nM, a Tmax (Lung [17]) of 3 h and a Cmax (Lung [18]) of 6.41 nmol/g. It also gave a t1/2 (Lung [9]) of 41.4 h and a Drug uptake (Lung [19]) of 0.915 nmol/g.
With `CC(=O)N[C@H]1[C@H]([C@H](O)[C@H](O)CO)OC(C(=O)O)=C[C@@H]1N[14C](=N)N` [[14C]-ZANAMIVIR] the Drug uptake [1] was 4 nmolequiv/g and the Drug uptake (Lung [2]) was 30 nmolequiv/g.
